Experimental data: patent US8885174B2, “Monitoring energy and matter fluxes by use of electromagnetic radiations” (priority 2009, dated 2014)
“Also recorded” adds a separate entry of the source. Where two headings read alike, the source gives them in different places.

How the values were obtained:
[1] = biological target: T1, rat GABAA α1β2γ2s receptor expressed in HEK 293 cells (HEKGABA) (Rattus norvegicus, UniProt P18508+P62813+P63138); type: cell-based; conditions: picrotoxin 30 μM, −100 mV; for effect on phase signal in HEKGABA (in words): GABA 3 μM, muscimol 1 μM, 30 s
T1 sequence (P63138 25-474): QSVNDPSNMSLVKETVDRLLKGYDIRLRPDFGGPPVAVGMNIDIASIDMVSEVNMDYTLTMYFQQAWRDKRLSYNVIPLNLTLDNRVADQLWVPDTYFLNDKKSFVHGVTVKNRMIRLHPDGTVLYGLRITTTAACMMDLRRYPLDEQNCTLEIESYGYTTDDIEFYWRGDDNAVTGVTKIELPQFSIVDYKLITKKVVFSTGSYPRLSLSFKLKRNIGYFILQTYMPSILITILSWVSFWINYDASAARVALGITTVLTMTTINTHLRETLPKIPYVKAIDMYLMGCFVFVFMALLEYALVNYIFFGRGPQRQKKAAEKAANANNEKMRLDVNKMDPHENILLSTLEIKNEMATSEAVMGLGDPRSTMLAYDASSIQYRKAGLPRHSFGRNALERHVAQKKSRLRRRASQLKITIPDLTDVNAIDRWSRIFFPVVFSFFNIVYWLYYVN
T1 sequence (P18508 39-466): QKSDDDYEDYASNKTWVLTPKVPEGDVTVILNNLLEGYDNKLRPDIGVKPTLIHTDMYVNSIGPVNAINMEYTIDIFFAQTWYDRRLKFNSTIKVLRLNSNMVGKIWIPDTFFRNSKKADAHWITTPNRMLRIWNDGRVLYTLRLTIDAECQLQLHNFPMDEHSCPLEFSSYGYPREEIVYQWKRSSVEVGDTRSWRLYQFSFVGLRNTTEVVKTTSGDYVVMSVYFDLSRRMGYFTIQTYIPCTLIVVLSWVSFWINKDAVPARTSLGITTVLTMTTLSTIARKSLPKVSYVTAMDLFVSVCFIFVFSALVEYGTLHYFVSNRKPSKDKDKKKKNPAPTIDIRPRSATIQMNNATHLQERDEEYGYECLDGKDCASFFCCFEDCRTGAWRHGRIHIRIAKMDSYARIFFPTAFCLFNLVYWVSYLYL
T1 sequence (P62813 28-455): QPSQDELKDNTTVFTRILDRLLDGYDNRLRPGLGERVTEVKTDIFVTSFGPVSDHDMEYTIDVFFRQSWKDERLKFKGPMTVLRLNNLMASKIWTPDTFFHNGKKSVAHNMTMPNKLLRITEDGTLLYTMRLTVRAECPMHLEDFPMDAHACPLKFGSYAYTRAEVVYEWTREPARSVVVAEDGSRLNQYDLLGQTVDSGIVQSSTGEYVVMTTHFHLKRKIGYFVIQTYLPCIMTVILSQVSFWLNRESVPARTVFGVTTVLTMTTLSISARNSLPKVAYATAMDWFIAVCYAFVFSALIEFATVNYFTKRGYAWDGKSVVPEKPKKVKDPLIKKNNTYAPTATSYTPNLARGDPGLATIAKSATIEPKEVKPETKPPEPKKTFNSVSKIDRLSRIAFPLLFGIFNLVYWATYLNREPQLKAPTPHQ
Description: HEKGABA cells: HEK 293 cells stably expressing configurations of rat GABAA receptors (HEKGABA) were generously given by Hoffmann-LaRoche (Basel, Switzerland). Briefly, cDNAs encoding rat GABAA α1, β2 and γ2s subunits were subcloned into the expression vectors pIRESpuro2, pIRESneo2 and pIREShygro2 vectors (Clontech, Mountain View, Calif.), respectively. The pIRES/GABAA α1, β2, γ2s, constructs were sequenced to confirm their nucleotide sequence and then cotransfected into HEK 293 cells at a ratio of 1:1:2 (plasmid mass ratio) using the lipofectamine 2000 kit according to the manufacturer's instructions (Invitrogen, Carlsbad, Calif., USA). Transfected cells were grown in minimal essential medium (Invitrogen) supplemented with 10% fetal calf serum (Invitrogen), 20 mM HEPES (Invitrogen) and 100 U/ml penicillin/100 μg/ml streptomycin (Invitrogen) for 48 hours and then, the cells were transferred to the selection medium containing 0.3 μg/ml puromycin (Clontech, Mountain View, Calif., USA), 300 μg/ml hygromycin B (Roche Diagnostics, Mannheim, Germany) and 200 μg/ml G418 (Invitrogen) for the generation of stable cell lines. Cell colonies were isolated and expression of the GABAA α1β2γ2s receptor was determined by [^3H] flumazenil binding.
(§1) Electrophysiology recording: All cultures were perfused in an artificial cerebrospinal fluid (ACSF) containing (in mM): […] (pH 7.4; Room temperature). For some experiments performed on HEK cells, picrotoxin (30 μM, Tocris) was added to the ACSF. […] Whole-cell recordings were made, and signals were amplified by using Multiclamp 700B amplifiers (Axon Instruments, Union City, Calif.) and digitized by means of an ITC-1600 interface (Instrutech, Great Neck, N.Y.) to a PC computer running Igor Pro (Wavemetrics, Portland, Oreg.). All currents (sampling interval, 5 kHz) were low-pass filtered (2 kHz). They were recorded with pipettes containing 95 mM potassium-gluconate, 40 mM KCl, 10 mM Hepes, 2 mM MgCl2 (pH 7.3). For some experiments, 95 mM potassium-gluconate was substituted with 95 mM KCl to reach a final concentration of [Cl^−]intrapip, to 139 mM. The pipettes were pulled with a DMZ universal puller.
Imaging: Holograms are acquired with a DHMT 1000 (Lyncée Tech SA, PSE-EPFL). A laser diode produces the coherent light (λ=683 nm) which is divided by a beam splitter into a reference wave and an object wave. The object wave diffracted by the specimen is collected by a microscope objective and interferes with a reference beam to produce the hologram recorded by the CCD camera. Frequency of hologram acquisition is 0.2 Hz. Reconstruction of the original image from the hologram is numerically achieved by a computer. The reconstruction algorithm provides simultaneous amplitude and quantitative phase images of the cells (Koala software).
Offline analysis: The electrophysiological and optical recordings were analysed by using MATLAB 7.6 (Mathworks Software, Natick, Mass.) and all curves have been fitted by using ORIGIN 7.5 (Microcal Software, Northampton, Mass.). […] All data are presented as means±SEM. Student's t-test (paired or unpaired) to determine statistical significance (p<0.05).

[2] = biological target: T1, rat GABAA α1β2γ2s receptor expressed in HEK 293 cells (HEKGABA); experiment: Whole-cell electrophysiology recording of GABAA current (IGABA, I/V curve) on HEKGABA cells; type: cell-based; conditions: GABA 3 μM or muscimol 1 μM, 30 s
Description: HEKGABA cells: HEK 293 cells stably expressing configurations of rat GABAA receptors (HEKGABA) were generously given by Hoffmann-LaRoche (Basel, Switzerland). Briefly, cDNAs encoding rat GABAA α1, β2 and γ2s subunits were subcloned into the expression vectors pIRESpuro2, pIRESneo2 and pIREShygro2 vectors (Clontech, Mountain View, Calif.), respectively. The pIRES/GABAA α1, β2, γ2s, constructs were sequenced to confirm their nucleotide sequence and then cotransfected into HEK 293 cells at a ratio of 1:1:2 (plasmid mass ratio) using the lipofectamine 2000 kit according to the manufacturer's instructions (Invitrogen, Carlsbad, Calif., USA). […] Cell colonies were isolated and expression of the GABAA α1β2γ2s receptor was determined by [^3H] flumazenil binding.
Electrophysiology recording: All cultures were perfused in an artificial cerebrospinal fluid (ACSF) containing (in mM): NaCl 150, KCl 3, D-glucose, 10 HEPES 10, CaCl2 3, and mM MgCl2. […] They were recorded with pipettes containing 95 mM potassium-gluconate, 40 mM KCl, 10 mM Hepes, 2 mM MgCl2 (pH 7.3). […]
Offline analysis: The electrophysiological and optical recordings were analysed by using MATLAB 7.6 (Mathworks Software, Natick, Mass.) and all curves have been fitted by using ORIGIN 7.5 (Microcal Software, Northampton, Mass.). […]

HEKnorm = experiment: DHM phase signal recording on non-transfected HEK cells (HEKnorm); type: cell-based; conditions: −100 mV, GABA 3 μM, 30 s
Protocol: as §1
Imaging: Holograms are acquired with a DHMT 1000 (Lyncée Tech SA, PSE-EPFL). […] The object wave diffracted by the specimen is collected by a microscope objective and interferes with a reference beam to produce the hologram recorded by the CCD camera. […] The reconstruction algorithm provides simultaneous amplitude and quantitative phase images of the cells (Koala software).

[3] = test system: cortical neurons in primary culture; experiment: DHM multisite phase recording on unpatched cortical neurons in primary culture; type: cell-based, mice; conditions: GABA 100 μM, 30 s
Protocol: Neuronal cell cultures: Primary cultures of cortical neurons were prepared from E17 OF1 mice embryos. Briefly, embryos were decapitated and brains removed and placed in PBS-glucose. Cortex was removed under a dissecting microscope and collected in a small Petri dish in PBS-glucose. Cell dissociation was obtained by gentle trituration with a fire-polished Pasteur pipette in Neurobasal medium supplemented with B27 and GlutaMAX (Invitrogen). Cells were plated at an average density of 15000 cells/cm^2 in supplemented Neurobasal medium on poly-ornithine coated glass coverslips (20 mm Ø). After 3-4 h, coverslips were transferred to dishes containing glial cell monolayers in supplemented Neurobasal medium. Neurons were maintained at 37° C. in a humidified atmosphere of 95% air/5% CO2 and were used after 21-35 days in vitro (DIV).
Imaging: Holograms are acquired with a DHMT 1000 (Lyncée Tech SA, PSE-EPFL). A laser diode produces the coherent light (λ=683 nm) which is divided by a beam splitter into a reference wave and an object wave. The object wave diffracted by the specimen is collected by a microscope objective and interferes with a reference beam to produce the hologram recorded by the CCD camera. Frequency of hologram acquisition is 0.2 Hz. Reconstruction of the original image from the hologram is numerically achieved by a computer. The reconstruction algorithm provides simultaneous amplitude and quantitative phase images of the cells (Koala software). It is important to note that an extensive quality control of the DHM technique has been published by Rappaz et al “Comparative study of human erythrocytes by digital holographic microscopy, confocal microscopy, and impedance volume analyzer” Cytom Part A 73A, 895-903 (2008).
Neurons also presented heterogeneous phase responses.

Compound | change of phase response evoked by GABA in presence of antagonist ([1]; GABA 3 μM 30 s) [%] | effect on phase signal in HEKGABA (in words) [1] | effect on phase signal in HEKGABA (in words) ([1]; listed as Picrotoxin) | effect on phase signal in HEKGABA (in words) ([1]; listed as Muscimol) | reversal potential for Cl− (ECl) from I/V curve ([2]; [Cl−]intrapip 40 mM (44 mM elsewhere in the source)) [mV] | reversal potential for Cl− (ECl) from I/V curve ([2]; [Cl−]intrapip 139 mM) [mV] | effect on phase signal in HEKnorm (in words) (HEKnorm) | Δφ phase signal in HEKnorm (HEKnorm) [°] | phase response, neurons with increase of phase signal ([3]; 3 of 46 cells) | phase response, neurons with decrease of phase signal ([3]; 13 of 46 cells) | phase response, neurons with modest or no detectable signal ([3]; 30 of 46 cells)
picrotoxin | −82±17 | reduces the phase shift | blocked | – | – | – | – | – | – | – | –
NCc1cc(=O)[nH]o1 [muscimol, Muscimol] | – | mimicked the effect of GABA | – | mimicked | −27 | −4 | – | – | – | – | –
NCCCC(=O)O [GABA] | – | – | – | – | – | – | no effect; also recorded: ineffective | 0.33±0.55 | 1.16+/−0.47 ° | −2.55+/−0.29 ° | −0.16+/−0.2 °
